Measurements reported in patent US7517857B2, “Immune-modulating peptide” (POSCO, priority 2002, dated 2009).
Entries after “also recorded” stand apart in the source; their conditions may differ. Where a SMILES comes first, the peptide text is derived from it. Where no end group is shown, it is not given here. [ ]: non-standard residue; d: D form.

What was measured:
Type in all cases: cell-based
FPR = target: T1, FPR (Homo sapiens, UniProt P21462); test: Exocytosis: β-hexosaminidase secretion in FPR-expressing RBL-2H3 cells; conditions: for granule secretion / β-hexosaminidase release (words): FPR cells, 10 μM of each peptide (WKYMVm also various concentrations)
T1 construct: expressed in transfected cells; host or cells: RBL-2H3 (rat basophilic leukemia) cells, G418-selected
T1 sequence (P21462 1-350): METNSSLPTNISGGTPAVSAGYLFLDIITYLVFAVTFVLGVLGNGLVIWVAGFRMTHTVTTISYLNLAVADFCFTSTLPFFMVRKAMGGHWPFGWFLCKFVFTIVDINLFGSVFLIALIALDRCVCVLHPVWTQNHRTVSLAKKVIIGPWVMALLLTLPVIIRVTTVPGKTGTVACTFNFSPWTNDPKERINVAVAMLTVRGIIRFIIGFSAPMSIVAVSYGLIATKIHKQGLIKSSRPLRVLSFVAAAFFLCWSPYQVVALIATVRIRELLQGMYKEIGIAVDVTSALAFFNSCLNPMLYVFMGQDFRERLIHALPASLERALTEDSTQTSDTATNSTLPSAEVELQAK
Method: (§1) Granule secretion is one of the most important function of mast cells (20). The effect of WKYMVm on granule secretion was checked by measuring β-hexosaminidase secretion as described above (18). Briefly, RBL-2H3 cells (2×10^5/well) expressing FPR or FPRL1 were cultured overnight in a 24-well tissue culture plate. The cells were washed twice with Tyrode's buffer (137 mM NaCl, 12 mM NaHCO3, 5.6 mM glucose, 2.7 mM KCl, 1 mM CaCl2, 0.5 mM MgCl2, 0.4 mM NaH2PO4, 0.1g/100 ml BSA, and 25 mM HEPES, pH 7.4) and stimulated with each peptide. Various concentrations of WKYMVm were treated in FPR- or FPRL1-expressing RBL-2H3 cells (FIG. 5A). 1 μM of WKYMVm was used to stimulate two cell lines in the absence or presence of 10 μM BAPTA/AM (FIG. 5B). The reaction was terminated 20 min after stimulation by placing the plate on ice. Secretion of β-hexosaminidase into the medium was determined by incubating 50 μl of supernatant or cell lysate with 25 μl of 5 mM p-nitrophenyl-N-acetyl-β-D-glucosamide in 0.1 M sodium citrate buffer (pH 3.8) at 37° C. for 2 hr. At the end of the incubation, 50 μl of 0.4 M Na2CO3 were added. Absorbance was monitored at 405 nm. Data are means ±S.E. of a single representative of three experiments performed in triplicate. Values (means ±S.E.) were expressed as a percent of total β-hexosaminidase present in the cells.
From the new finding that cytosolic calcium release was induced by WKYMVm and many of the substituted peptides of WKYMVm but not by some of them (WKGMVm (SEQ ID NO: 1), WKRMVm (SEQ ID NO: 11), D-Met^6 substituted peptides), the effect of the peptides on granule secretion in RBL cells was checked. 10 μM of each peptide was treated in FPR- (FIG. 6A) or FPRL1-expressing RBL-2H3 cells (FIG. 6B). The peptide-induced secretion of β-hexosaminidase was determined as above. Data are means ±S.E. of a single representative of three experiments performed in triplicate.

FPRL1 [1] = target: T2, FPRL1 (Homo sapiens, UniProt P25090); test: Exocytosis: β-hexosaminidase secretion in FPRL1-expressing RBL-2H3 cells; conditions: for granule secretion / β-hexosaminidase release (words): FPRL1 cells, 10 μM of each peptide (WKYMVm also various concentrations)
T2 construct: expressed in transfected cells; host or cells: RBL-2H3 (rat basophilic leukemia) cells, G418-selected
T2 sequence (P25090 1-351): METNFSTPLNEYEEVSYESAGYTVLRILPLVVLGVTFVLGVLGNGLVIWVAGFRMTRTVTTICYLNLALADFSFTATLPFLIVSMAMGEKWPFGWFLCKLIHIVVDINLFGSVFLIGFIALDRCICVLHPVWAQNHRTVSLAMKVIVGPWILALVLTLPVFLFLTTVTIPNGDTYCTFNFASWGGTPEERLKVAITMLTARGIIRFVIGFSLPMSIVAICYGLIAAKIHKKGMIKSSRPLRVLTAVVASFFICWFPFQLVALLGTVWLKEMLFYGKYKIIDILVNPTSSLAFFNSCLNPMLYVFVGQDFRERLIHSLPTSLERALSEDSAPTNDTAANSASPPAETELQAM
Method: as §1
10 μM of each peptide was treated in FPR- (FIG. 6A) or FPRL1-expressing RBL-2H3 cells (FIG. 6B). The peptide-induced secretion of β-hexosaminidase was determined as above. Data are means ±S.E. of a single representative of three experiments performed in triplicate.

FPRL1 [2] = target: T2, FPRL1; test: Chemotaxis of FPRL1-expressing RBL-2H3 cells (modified Boyden chamber); conditions: FPRL1-expressing RBL-2H3 cells; various concentrations
Method: Chemotaxis assays were performed using multiwell chambers (modified Boyden chamber assay) (Neuroprobe Inc., Gaithersburg, Md.) (18). Briefly, polycarbonate filters (8 μm pore size) were precoated with 50 μg/ml of rat type I collagen (Collaborative Biomedicals) in a HEPES-buffered RPMI 1640 medium. A dry coated filter was placed on a 96-well chamber containing different concentrations of peptides. RBL-2H3 cells expressing FPR or FPRL1 were suspended in RPMI at a concentration of 1×10^6 cells/ml of serum-free RPMI, and 25 μl of the suspension were placed onto the upper well of the 96-well chemotaxis chamber. After incubation for 4 hours at 37° C., non-migrated cells were removed by scraping them out, and cells that migrated across the filter were dehydrated, fixed, and stained with hematoxylin (Sigma, St. Louis, Mo.). The stained cells in five randomly chosen high power fields (HPF) (400×) in that well were then counted. […] The numbers of migrated cells were determined by counting them in a high power field (400×). The Data are presented as means ±SE of three independent experiments each performed in duplicate. The effect of the peptides of the present invention on cellular chemotaxis in FPR- or FPRL1-expressing RBL-2H3 cells was measured. Various concentrations of each peptide were used for the chemotaxis assay with FPR- or FPRL1-expressing RBL-2H3 cells. The numbers of migrated cells were determined by counting them in a high power field (400×). The Data are presented as means ±SE of two independent experiments each performed in duplicates.

CSCC[C@H](NC(=O)CNC(=O)[C@H](CCCCN)NC(=O)[C@@H](N)Cc1c[nH]c2ccccc12)C(=O)N[C@H](C(=O)N[C@H](CCSC)C(N)=O)C(C)C [WKGMVm-NH2, Trp-Lys-Gly-Met-Val-D-Met-NH2] (H-WKGMV[dM]-NH2; N-terminus assumed)
granule secretion / β-hexosaminidase release (words) (FPR): could not effect granule secretion
granule secretion / β-hexosaminidase release (words) (FPRL1 [1]): stimulated granule secretion
cellular chemotaxis (FPRL1 [2]): induced cellular chemotaxis showing concentration-dependency

CSCC[C@H](NC(=O)[C@H](CCCNC(=N)N)NC(=O)[C@H](CCCCN)NC(=O)[C@@H](N)Cc1c[nH]c2ccccc12)C(=O)N[C@H](C(=O)N[C@H](CCSC)C(N)=O)C(C)C [WKRMVm-NH2, Trp-Lys-Arg-Met-Val-D-Met-NH2] (H-WKRMV[dM]-NH2; N-terminus assumed)
granule secretion / β-hexosaminidase release (words) (FPR): could not effect granule secretion
granule secretion / β-hexosaminidase release (words) (FPRL1 [1]): stimulated granule secretion
cellular chemotaxis (FPRL1 [2]): induced cellular chemotaxis showing concentration-dependency

CSCC[C@H](NC(=O)[C@H](Cc1ccc(O)cc1)NC(=O)[C@H](CCCCN)NC(=O)[C@@H](N)Cc1c[nH]c2ccccc12)C(=O)N[C@H](C(=O)N[C@H](CCSC)C(N)=O)C(C)C [WKYMVm-NH2, Trp-Lys-Tyr-Met-Val-D-Met-NH2, reference compound]
granule secretion / β-hexosaminidase release (words) (FPR): caused β-hexosaminidase release in a concentration-dependent manner
concentration showing maximal β-hexosaminidase release (FPR; FPR-expressing RBL-2H3 cells): 100 nM
concentration showing maximal β-hexosaminidase release (FPRL1 [1]; FPRL1-expressing RBL-2H3 cells): 10 nM
granule secretion / β-hexosaminidase release (words) (FPRL1 [1]; listed as WKYMVm): caused β-hexosaminidase release in a concentration-dependent manner; also recorded: stimulated granule secretion
granule secretion / β-hexosaminidase release (words) (FPRL1 [1]; listed as wkymvm): but not fMLF or wkymvm, stimulated granule secretion
cellular chemotaxis (FPRL1 [2]): induced cellular chemotaxis showing concentration-dependency

WKYMVE-NH2 [WKYMVE-NH2, Trp-Lys-Tyr-Met-Val-Glu-NH2]
granule secretion / β-hexosaminidase release (words) (FPRL1 [1]): stimulated granule secretion
cellular chemotaxis (FPRL1 [2]): induced cellular chemotaxis showing concentration-dependency

WKYMVR-NH2 [WKYMVR-NH2, Trp-Lys-Tyr-Met-Val-Arg-NH2]
granule secretion / β-hexosaminidase release (words) (FPRL1 [1]): stimulated granule secretion
cellular chemotaxis (FPRL1 [2]): induced cellular chemotaxis showing concentration-dependency
